From the supplement of paper PMC11061612

Key:
[1] = system: CPC-N (Small Cell Lung Carcinoma); assay: combination Emax (second highest fraction inhibited in the dose matrix, 72 h); higher = more inhibition; extreme values may be limits of the assay
Outline: (§1)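 Cell lines grown in DMEM/F12 or RPMI with 10% FBS were plated in 1536-well plates and held 24 hours at 37°C, 5% CO2 before 72 hours of exposure to two-drug dose matrices, with DMSO typically at 0.2%. CellTiter-Glo 2.0 luminescence gave viability, which was converted to inhibition. Vehicle wells were set to 0 and blank wells to 1. Combination Emax is the second-highest inhibition in the matrix, and Bliss excess is the observed combination effect minus the expected EA + EB − EA·EB, where EA and EB are the single-agent effects.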

[2] = system: SK-CO-1 (Colorectal Carcinoma); assay: as above
Outline: as §1

[3] = system: SCC-4 (Oral Cavity Carcinoma); assay: as above
Outline: as §1

UACC-257 (Melanoma) = assay: Bliss excess, mean over the matrix (fraction); higher = more synergy
Outline: as §1

[4] = system: LS-1034 (Colorectal Carcinoma); assay: as above
Outline: as §1

[5] = system: IA-LM (Non-Small Cell Lung Carcinoma); assay: as above
Outline: as §1

[6] = system: SAT (Head and Neck Carcinoma); assay: as above
Outline: as §1

[7] = system: NMC-G1 (Low Grade Glioma); assay: as above
Outline: as §1

[8] = system: DBTRG-05MG (Glioblastoma); assay: as above
Outline: as §1

[9] = system: ZR-75-30 (Breast Carcinoma); assay: as above
Outline: as §1

[10] = system: SiHa (Cervical Carcinoma); assay: as above
Outline: as §1

ES6 (Ewing's Sarcoma) = assay: as above
Outline: as §1

[11] = system: CL-11 (Colorectal Carcinoma); assay: as above
Outline: as §1

[12] = system: RCC-JW (Kidney Carcinoma); assay: as above
Outline: as §1

NCI-H226 (Mesothelioma) = assay: as above
Outline: as §1

[13] = system: MM1S (Plasma Cell Myeloma); assay: as above
Outline: as §1

[14] = system: SK-CO-1 (Colorectal Carcinoma); assay: as above
Outline: as §1

[15] = system: P32-ISH (Burkitt's Lymphoma); assay: as above
Outline: as §1

[16] = system: SNU-423 (Hepatocellular Carcinoma); assay: as above
Outline: as §1

[17] = system: SNU-407 (Colorectal Carcinoma); assay: as above
Outline: as §1
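Throughout, for Bliss excess, mean over the matrix: after 72 h of two-drug dosing.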

Compound | combination Emax [1] | combination Emax [2] | combination Emax [3] | Bliss excess (UACC-257 (Melanoma)) | Bliss excess [4] | Bliss excess [5] | Bliss excess [6] | Bliss excess [7] | Bliss excess [8] | Bliss excess [9] | Bliss excess [10] | Bliss excess (ES6 (Ewing's Sarcoma)) | Bliss excess [11] | Bliss excess [12] | Bliss excess (NCI-H226 (Mesothelioma)) | Bliss excess [13] | Bliss excess [14] | Bliss excess [15] | Bliss excess [16] | Bliss excess [17]
Cc1c2c(nn1C)CSCc1cc(n(C)n1)CSc1cc(c3ccccc3c1)OCCCc1c(C(=O)O)n(C)c3c-2c(Cl)ccc13 [AZD5991] + Cc1cc2ncnn2cc1Nc1ncc2c(n1)n(C1CCOCC1)c(=O)n2C [AZD7648] (first compound max 1 µM, 7x7, partner max 10 µM) | 0.245 | 0.279 | 0.458 | -0.0242 | 0.0092 | -0.0226 | -0.0599 | -0.0606 | -0.0436 | -0.0134 | -0.0234 | -0.0745 | -0.0533 | -0.0349 | -0.061 | 0.0085 | -0.0402 | 0.0465 | -0.0768 | -0.0369
Cc1c2c(nn1C)CSCc1cc(n(C)n1)CSc1cc(c3ccccc3c1)OCCCc1c(C(=O)O)n(C)c3c-2c(Cl)ccc13 [AZD5991] + Cn1cnc2c(F)c(Nc3ccc(Br)cc3Cl)c(C(=O)NOCCO)cc21 [Selumetinib] (first compound max 1 µM, 7x7, partner max 3 µM) | 0.237 | 0.818 | 0.839 | 0.0215 | 0.0513 | -0.0299 | 0.0193 | -0.0243 | 0.0307 | -0.0609 | 0.0015 | -0.039 | -0.0222 | -0.0319 | -0.0684 | 0.0828 | -0.0218 | 0.0025 | -0.0599 | 0.0342
C[C@@H]1COCCN1c1cc(C2([S@](C)(=N)=O)CC2)nc(-c2ccnc3[nH]ccc23)n1 [AZD6738] + O=C(c1cc(Cc2n[nH]c(=O)c3ccccc23)ccc1F)N1CCN(C(=O)C2CC2)CC1 [Olaparib] (first compound max 10 µM, 7x7, partner max 10 µM) | 0.912 | 0.768 | 0.729 | -0.0009 | -0.0391 | 0.0137 | 0.0019 | 0.0071 | 0.0096 | -0.0408 | 0.0106 | 0.0128 | 0.0013 | 0.0465 | -0.0156 | -0.0388 | 0.013 | -0.0424 | -0.0005 | -0.0323
Cc1cc2ncnn2cc1Nc1ncc2c(n1)n(C1CCOCC1)c(=O)n2C [AZD7648] + C=CCn1c(=O)c2cnc(Nc3ccc(N4CCN(C)CC4)cc3)nc2n1-c1cccc(C(C)(C)O)n1 [AZD1775] (first compound max 10 µM, partner max 1 µM) | 0.931 | 0.521 | 0.466 | 0.0334 | -0.0645 | -0.0108 | -0.0065 | 0.0106 | 0.0039 | -0.0678 | 0.0306 | -0.0031 | 0.0119 | -0.0102 | -0.004 | -0.0401 | -0.0846 | -0.0011 | -0.0257 | 0.0134
Cc1cc2ncnn2cc1Nc1ncc2c(n1)n(C1CCOCC1)c(=O)n2C [AZD7648] + CCN(CCO)CCCOc1ccc2c(Nc3cc(CC(=O)Nc4cccc(F)c4)[nH]n3)ncnc2c1 [AZD2811] (first compound max 10 µM, 7x7, partner max 1 µM) | 0.795 | 0.549 | 0.307 | 0.0315 | 0.0104 | 0.0156 | -0.0101 | -0.0407 | -0.0028 | -0.0449 | 0.0278 | -0.0042 | 0.0274 | -0.011 | -0.0733 | 0.0333 | -0.0524 | -0.0367 | -0.0408 | 0.023
Cc1cc2ncnn2cc1Nc1ncc2c(n1)n(C1CCOCC1)c(=O)n2C [AZD7648] + CN(C)CCCOc1ccc(-c2ccc3ncc4c(c3c2)n(C2CCOCC2)c(=O)n4C)cn1 [AZD0156] (first compound max 10 µM, 7x7, partner max 1 µM) | 0.368 | 0.309 | 0.219 | -0.02 | -0.0187 | -0.0133 | 0.0062 | -0.0497 | -0.0363 | -0.0321 | -0.0074 | -0.0234 | 0.0399 | -0.0158 | -0.0393 | 0.0196 | -0.0486 | 0.0153 | -0.0133 | -0.0385
Cc1cc2ncnn2cc1Nc1ncc2c(n1)n(C1CCOCC1)c(=O)n2C [AZD7648] + C[C@@H]1COCCN1C2=NC(=NC(=C2)C3(CC3)[S@](=N)(=O)C)C4=C5C=CNC5=NC=C4 [AZD6738] (first compound max 10 µM, 7x7, partner max 10 µM) | 0.911 | 0.563 | 0.575 | 0.0075 | 0.0327 | 0.0867 | 0.0561 | 0.0004 | -0.0174 | -0.0224 | 0.0466 | -0.0082 | -0.028 | 0.0176 | 0.046 | 0.014 | 0.0003 | -0.0029 | 0.0426 | -0.0207
Cc1cc2ncnn2cc1Nc1ncc2c(n1)n(C1CCOCC1)c(=O)n2C [AZD7648] + O=C(c1cc(Cc2n[nH]c(=O)c3ccccc23)ccc1F)N1CCN(C(=O)C2CC2)CC1 [Olaparib] (first compound max 10 µM, 7x7, partner max 10 µM) | 0.31 | 0.488 | 0.259 | -0.0422 | -0.0353 | -0.042 | -0.039 | -0.0538 | -0.0477 | -0.0469 | -0.0389 | -0.0341 | -0.0464 | -0.0795 | -0.0801 | 0.0141 | -0.0466 | -0.0413 | -0.0451 | -0.0796
COc1cccc2c1C(=O)c1c(O)c3c(c(O)c1C2=O)C[C@@](O)(C(=O)CO)C[C@@H]3O[C@H]1C[C@H](N)[C@H](O)[C@H](C)O1 [Doxorubicin] + Cc1cc2ncnn2cc1Nc1ncc2c(n1)n(C1CCOCC1)c(=O)n2C [AZD7648] (first compound max 1 µM, 7x7, partner max 10 µM) | 0.911 | 0.77 | 0.303 | -0.0059 | 0.0055 | 0.0044 | 0.0764 | -0.0029 | 0.0225 | 0.003 | 0.0142 | 0.0672 | 0.0863 | 0.0352 | 0.0068 | 0.0891 | -0.0163 | 0.14 | 0.0414 | -0.0143
COc1cccc(OCCCN)c1-c1cc(Nc2cnc(C#N)cn2)n[nH]1 [Prexasertib] + C=CCn1c(=O)c2cnc(Nc3ccc(N4CCN(C)CC4)cc3)nc2n1-c1cccc(C(C)(C)O)n1 [AZD1775] (first compound max 1 µM, partner max 1 µM) | 1 | 0.775 | 0.665 | 0.0714 | 0.0999 | 0.0573 | -0.0318 | -0.0285 | -0.0008 | -0.0353 | 0.0666 | 0.0362 | -0.0496 | 0.169 | 0.0023 | 0.0356 | 0.0582 | 0.0657 | 0.128 | 0.0807
COc1cccc(OCCCN)c1-c1cc(Nc2cnc(C#N)cn2)n[nH]1 [Prexasertib] + CCc1c2c(nc3ccc(O)cc13)-c1cc3c(c(=O)n1C2)COC(=O)[C@]3(O)CC [SN-38] (first compound max 1 µM, 7x7, partner max 0.3 µM) | 1 | 0.826 | 0.917 | -0.0664 | 0.0888 | -0.0012 | -0.007 | -0.105 | -0.0558 | -0.0408 | 0.0357 | 0.0156 | 0.0172 | -0.0065 | -0.058 | -0.0065 | -0.074 | -0.0201 | 0.0169 | -0.0384
COc1cccc(OCCCN)c1-c1cc(Nc2cnc(C#N)cn2)n[nH]1 [Prexasertib] + CN(C)CCCOc1ccc(-c2ccc3ncc4c(c3c2)n(C2CCOCC2)c(=O)n4C)cn1 [AZD0156] (first compound max 1 µM, 7x7, partner max 1 µM) | 1 | 0.695 | 0.63 | 0.0044 | -0.0471 | -0.0364 | -0.0158 | -0.0134 | -0.0209 | -0.0512 | 0.0003 | 0.0091 | -0.0548 | 0.0281 | -0.0611 | -0.0718 | -0.0341 | -0.0238 | -0.0711 | -0.0146
COc1cccc(OCCCN)c1-c1cc(Nc2cnc(C#N)cn2)n[nH]1 [Prexasertib] + C[C@@H]1COCCN1C2=NC(=NC(=C2)C3(CC3)[S@](=N)(=O)C)C4=C5C=CNC5=NC=C4 [AZD6738] (first compound max 1 µM, 7x7, partner max 10 µM) | 1 | 0.656 | 0.676 | 0.0005 | 0.035 | 0.0439 | -0.0238 | 0.0155 | -0.0378 | -0.0102 | 0.0191 | 0.0366 | -0.058 | 0.0671 | 0.01 | -0.0953 | -0.0469 | -0.0127 | 0 | -0.0094
COc1cccc(OCCCN)c1-c1cc(Nc2cnc(C#N)cn2)n[nH]1 [Prexasertib] + Cc1cc2ncnn2cc1Nc1ncc2c(n1)n(C1CCOCC1)c(=O)n2C [AZD7648] (first compound max 1 µM, 7x7, partner max 10 µM) | 1 | 0.593 | 0.609 | -0.0111 | -0.0229 | 0.0324 | -0.0294 | -0.0374 | -0.0105 | -0.0463 | -0.0174 | 0.0027 | -0.0065 | 0.0374 | -0.0568 | -0.0108 | -0.009 | -0.0068 | -0.0244 | 0.0252
COc1cccc(OCCCN)c1-c1cc(Nc2cnc(C#N)cn2)n[nH]1 [Prexasertib] + O=C(c1cc(Cc2n[nH]c(=O)c3ccccc23)ccc1F)N1CCN(C(=O)C2CC2)CC1 [Olaparib] (first compound max 1 µM, 7x7, partner max 10 µM) | 0.984 | 0.643 | 0.588 | -0.0242 | -0.027 | -0.0456 | -0.0473 | -0.0325 | -0.025 | -0.108 | 0.0226 | 0.0253 | -0.0583 | -0.0896 | -0.0802 | -0.0683 | -0.0442 | -0.0205 | -0.0011 | -0.0041
